Data from ChEMBL document CHEMBL1926642, “Relevance of the C-5 position to schweinfurthin induced cytotoxicity” (2011).

Tests used:
Format in all cases: functional
[1] = tested on: OVCAR-8; assay: Growth inhibition of human OVCAR8 cells after 48 hrs by sulforhodamine B assay; details: OVCAR-8, 48 h; for TGI: read-out: pTGI (converted)
[2] = tested on: SF-295; assay: Growth inhibition of human SF295 cells after 48 hrs by sulforhodamine B assay; details: SF-295, 48 h; for TGI: read-out: pTGI (converted)
[3] = tested on: RXF 393; assay: Growth inhibition of human RXF393 cells after 48 hrs by sulforhodamine B assay; details: RXF 393, 48 h; for TGI: read-out: pTGI (converted)
[4] = tested on: 786-0; assay: Growth inhibition of human 786-0 cells after 48 hrs by sulforhodamine B assay; details: 786-0, 48 h; for CC50: read-out: pLC50 (the source's name) (converted); for TGI: read-out: pTGI (converted)
[5] = tested on: SNB-75; assay: Growth inhibition of human SNB75 cells after 48 hrs by sulforhodamine B assay; details: SNB-75, 48 h; for TGI: read-out: pTGI (converted)
[6] = tested on: NCI-H460; assay: Growth inhibition of human NCI-H460 cells after 48 hrs by sulforhodamine B assay; details: NCI-H460, 48 h; for TGI: read-out: pTGI (converted)
[7] = tested on: T47D; assay: Growth inhibition of human T47D cells after 48 hrs by sulforhodamine B assay; details: for TGI: read-out: pTGI (converted)
[8] = tested on: MCF7; assay: Growth inhibition of human MCF7 cells after 48 hrs by sulforhodamine B assay; details: MCF7, 48 h; for TGI: read-out: pTGI (converted)
[9] = tested on: SK-MEL-5; assay: Growth inhibition of human SK-MEL-5 cells after 48 hrs by sulforhodamine B assay; details: SK-MEL-5, 48 h; for TGI: read-out: pTGI (converted)
[10] = tested on: Malme-3M; assay: Growth inhibition of human MALME-3M cells after 48 hrs by sulforhodamine B assay; details: for TGI: read-out: pTGI (converted)
[11] = tested on: HOP-62; assay: Growth inhibition of human HOP62 cells after 48 hrs by sulforhodamine B assay; details: HOP-62, 48 h; for TGI: read-out: pTGI (converted)
[12] = tested on: HCT-15; assay: Growth inhibition of human HCT15 cells after 48 hrs by sulforhodamine B assay; details: HCT-15, 48 h; for TGI: read-out: pTGI (converted)
[13] = tested on: A549; assay: Growth inhibition of human A549 cells after 48 hrs by sulforhodamine B assay; details: A549, 48 h; for TGI: read-out: pTGI (converted)
[14] = tested on: PC-3; assay: Growth inhibition of human PC3 cells after 48 hrs by sulforhodamine B assay; details: PC-3, 48 h; for CC50: read-out: pLC50 (the source's name) (converted); for TGI: read-out: pTGI (converted)
[15] = tested on: SR; assay: Growth inhibition of human SR cells after 48 hrs by sulforhodamine B assay; details: for TGI: read-out: pTGI (converted)
[16] = tested on: NCI-H322M; assay: Growth inhibition of human NCI-H322M cells after 48 hrs by sulforhodamine B assay; details: for TGI: read-out: pTGI (converted)
[17] = tested on: DU-145; assay: Growth inhibition of human DU145 cells after 48 hrs by sulforhodamine B assay; details: DU-145, 48 h; for TGI: read-out: pTGI (converted)
[18] = tested on: SN12C; assay: Growth inhibition of human SN12C cells after 48 hrs by sulforhodamine B assay; details: for TGI: read-out: pTGI (converted)
[19] = tested on: KM12; assay: Growth inhibition of human KM12 cells after 48 hrs by sulforhodamine B assay; details: KM12, 48 h; for TGI: read-out: pTGI (converted)
[20] = tested on: NCI-H23; assay: Growth inhibition of human NCI-H23 cells after 48 hrs by sulforhodamine B assay; details: NCI-H23, 48 h; for TGI: read-out: pTGI (converted)
[21] = tested on: OVCAR-5; assay: Growth inhibition of human OVCAR5 cells after 48 hrs by sulforhodamine B assay; details: OVCAR-5, 48 h
[22] = tested on: SNB-19; assay: Growth inhibition of human SNB19 cells after 48 hrs by sulforhodamine B assay; details: SNB-19, 48 h; for TGI: read-out: pTGI (converted)
[23] = tested on: SK-OV-3; assay: Growth inhibition of human SKOV3 cells after 48 hrs by sulforhodamine B assay; details: SK-OV-3, 48 h; for TGI: read-out: pTGI (converted)
[24] = tested on: IGROV-1; assay: Growth inhibition of human IGROV1 cells after 48 hrs by sulforhodamine B assay; details: IGROV-1, 48 h; for TGI: read-out: pTGI (converted)
[25] = tested on: MDA-MB-231; assay: Growth inhibition of human MDA-MB-231/ATCC cells after 48 hrs by sulforhodamine B assay; details: MDA-MB-231, 48 h; for CC50: read-out: pLC50 (the source's name) (converted); for TGI: read-out: pTGI (converted)
[26] = tested on: CCRF-CEM; assay: Growth inhibition of human CCRF-CEM cells after 48 hrs by sulforhodamine B assay; details: for TGI: read-out: pTGI (converted)
[27] = tested on: UACC-62; assay: Growth inhibition of human UACC62 cells after 48 hrs by sulforhodamine B assay; details: UACC-62, 48 h; for TGI: read-out: pTGI (converted)

## COc1cc(/C=C/c2cc3c(c(SC)c2)O[C@]2(C)CC[C@@H](O)C(C)(C)[C@H]2C3)cc(O)c1C/C=C(\C)CCC=C(C)C
[1]
  GI50: 14.8 µM
  LC50: > 100 µM
  TGI: 41.7 µM
[2]
  LC50: > 100 µM
  TGI: 25.1 µM
[2]; read-out: GI50
  GI50: 3.8 µM
[2]; read-out: pGI50 (converted)
  GI50: 3.02 µM
[3]
  GI50: 1.55 µM
  LC50 (50% lethal concentration): 17.8 µM
  TGI: 4.47 µM
[4]
  GI50: 5.01 µM
  CC50: 67.6 µM
  TGI: 21.4 µM
[5]
  GI50: 3.8 µM
  LC50: > 100 µM
  TGI: 33.1 µM
[6]
  GI50: 3.47 µM
  LC50 (concentration killing 50% of cells): 51.3 µM
  TGI: 13.8 µM
[7]
  GI50: 14.5 µM
  LC50: > 100 µM
  TGI: 67.6 µM
[8]
  GI50: 7.76 µM
  LC50: > 100 µM
  TGI: 45.7 µM
[9]
  GI50: 9.77 µM
  LC50: 55 µM
  TGI: 23.4 µM
[10]
  GI50: 30.9 µM
  LC50: > 100 µM
  TGI: > 100 µM
[11]
  GI50: 12 µM
  LC50: 79.4 µM
  TGI: 30.9 µM
[12]
  GI50: 2.95 µM
  LC50: 72.4 µM
  TGI: 8.91 µM
[13]
  LC50: > 100 µM
  TGI: 52.5 µM
[13]; read-out: GI50
  GI50: 6.03 µM
[13]; read-out: pGI50 (converted)
  GI50: 6.03 µM
[14]
  GI50: 6.03 µM
  CC50: > 100 µM
  TGI: 51.3 µM
[15]
  GI50: 3.8 µM
  LC50: > 100 µM
  TGI: > 100 µM
[16]
  GI50: 51.3 µM
  LC50: > 100 µM
  TGI: > 100 µM
[17]
  GI50: 8.71 µM
  LC50: 93.3 µM
  TGI: 29.5 µM
[18]
  GI50: 10.5 µM
  LC50: > 100 µM
  TGI: 32.4 µM
[19]
  GI50: 4.27 µM
  LC50: 83.2 µM
  TGI: 20.4 µM
[20]
  GI50: 11.5 µM
  LC50: > 100 µM
  TGI: 36.3 µM
[21]
  GI50: 22.9 µM
  LC50: > 100 µM
[21]; read-out: pTGI (converted)
  TGI: 57.5 µM
[22]
  GI50: 28.2 µM
  LC50: > 100 µM
  TGI: > 100 µM
[23]
  GI50: 7.94 µM
  LC50: > 100 µM
  TGI: 43.7 µM
[24]
  GI50: 39.8 µM
  LC50: > 100 µM
  TGI: > 100 µM
[25]
  GI50: 3.39 µM
  CC50: 56.2 µM
  TGI: 14.5 µM
[26]
  GI50: 5.62 µM
  LC50: > 100 µM
  TGI: > 100 µM
[27]
  GI50: 7.08 µM
  LC50 (50% lethal concentration): > 100 µM
  TGI: 28.8 µM

## COc1cc(/C=C/c2cc3c(c(OC)c2)O[C@]2(C)CC[C@@H](O)C(C)(C)[C@H]2C3)cc(O)c1C/C=C(\C)CCC=C(C)C
[1]
  GI50: 5.5 µM
  LC50: 30.9 µM
  TGI: 13.2 µM
[2]
  LC50: 3.89 µM
  TGI: 0.871 µM
[2]; read-out: GI50
  GI50: 0.19 µM
[2]; read-out: pGI50 (converted)
  GI50: 0.186 µM
[3]
  GI50: 0.0891 µM
  LC50 (50% lethal concentration): 4.17 µM
  TGI: 0.302 µM
[4]
  GI50: 0.123 µM
  CC50: 4.17 µM
  TGI: 0.363 µM
[5]
  GI50: 3.63 µM
  LC50: 30.2 µM
  TGI: 11.7 µM
[6]
  GI50: 1.32 µM
  LC50 (concentration killing 50% of cells): 16.2 µM
  TGI: 5.25 µM
[7]
  GI50: 2.29 µM
  LC50: 23.4 µM
  TGI: 9.12 µM
[8]
  GI50: 1.02 µM
  LC50: 17.4 µM
  TGI: 5.89 µM
[9]
  GI50: 0.955 µM
  LC50: 6.92 µM
  TGI: 2.34 µM
[10]
  GI50: 5.13 µM
  LC50: 36.3 µM
  TGI: 13.5 µM
[11]
  GI50: 0.832 µM
  LC50: 11 µM
  TGI: 2.82 µM
[12]
  GI50: 1.29 µM
  LC50: 17.8 µM
  TGI: 6.03 µM
[13]
  LC50: 28.2 µM
  TGI: 10.5 µM
[13]; read-out: GI50
  GI50: 2.45 µM
[13]; read-out: pGI50 (converted)
  GI50: 2.45 µM
[14]
  GI50: 0.741 µM
  CC50: 37.2 µM
  TGI: 10 µM
[15]
  GI50: 1.02 µM
  LC50: 22.4 µM
  TGI: 3.16 µM
[16]
  GI50: 6.76 µM
  LC50: > 50.1 µM
  TGI: 18.6 µM
[17]
  GI50: 3.8 µM
  LC50: 22.9 µM
  TGI: 10.2 µM
[18]
  GI50: 5.89 µM
  LC50: 28.8 µM
  TGI: 13.2 µM
[19]
  GI50: 1.35 µM
  LC50: 18.6 µM
  TGI: 6.03 µM
[20]
  GI50: 5.62 µM
  LC50: 26.9 µM
  TGI: 12.3 µM
[22]
  GI50: 3.89 µM
  LC50: 41.7 µM
  TGI: 14.1 µM
[23]
  GI50: 3.24 µM
  LC50: > 50.1 µM
  TGI: 18.2 µM
[24]
  GI50: 5.75 µM
  LC50: 30.9 µM
  TGI: 13.5 µM
[25]
  GI50: 2.04 µM
  CC50: 19.5 µM
  TGI: 7.76 µM
[26]
  GI50: 1.41 µM
  LC50: > 50.1 µM
  TGI: 13.8 µM
[27]
  GI50: 1.07 µM
  LC50 (50% lethal concentration): 13.8 µM
  TGI: 3.8 µM
